From patent publication US20070004621A1, “Bex4 nucleic acids, polypeptides, and method of using” (priority 2003, published 2007)

Tests used:
[1] = tested on: Bex4 transcription in OV202 cells; experiment: Bex4 transcription (RT-PCR) in OV202 cells after 5-aza-2′-deoxycytidine treatment; type: cell-based, human; settings: OV202 cells, 0, 1, 5, or 10 μM, 48 hours, PCR with Bex4 specific primers
Experimental: To determine if hypermethylation is responsible for inactivation of Bex4 expression in OvCa cell lines, OV202 cells were treated with 0, 1, 5, or 10 μM 5-aza-2′-deoxycytidine (a DNA methyltransferase inhibitor) for 48 hours. RNA was extracted, reverse transcribed, and analyzed by PCR using Bex4 specific primers.

[2] = tested on: Bex4 expression in Xa cell line; experiment: Bex4 expression and site 1 methylation in Xa hybrid cell line after inhibitor treatment; type: cell-based; settings: for Bex4 expression / transcription: Xa (active X) hybrid cell line, various concentrations
Experimental: To determine if methylation of site 1 controlled Bex4 expression in the Xa cell line, cells were treated with various concentrations of the methyltransferase inhibitor 5-aza-2′ deoxycytidine (5-aza-dC). […] Epigenetic inactivation Bex4 in Xa was specific, since two genes flanking Bex4, namely Bex3/NADE and pp21 homolog, were expressed in Xa.

[3] = tested on: Bex4 transcription in OV207; experiment: Bex4 transcription in OV207 cells after 5-aza-dC treatment; type: cell-based, human; settings: OV207 cell line
Source text: Methylation at site 1 in these samples was associated with loss of Bex4 expression, as evidenced by semi-quantitative RT-PCR.

SMILES: Nc1ncn([C@H]2C[C@H](O)[C@@H](CO)O2)c(=O)n1 [5-aza-2′-deoxycytidine]
- transcription of Bex4 [1]: dose dependant increase
- methylation of site 1 (bisulfite-modified DNA) ([2]; 5-aza-dC treated Xa cells): demethylation of site 1
- Bex4 expression / transcription [2]: dose-dependent increase
- Bex4 transcription [3]: induced Bex4 transcription

SMILES: CC(/C=C/C(=O)NO)=C\[C@@H](C)C(=O)c1ccc(N(C)C)cc1 [Trichostatin A, trichostatin A]
- Bex4 expression / transcription [2]: did not affect
